In this assay the test system is P388 leukemia ip, CD2F1 mice, survival T/C. Put plainly: NCI In Vivo Anticancer Drug Screen. Data for tumor model P388 Leukemia (intraperitoneal) in CD2F1 (CDF1) mice. The conditions noted are these: endpoint: median survival time, higher = longer survival. The gist of the method: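 Mice carrying the transplanted tumor received test compound or vehicle. Survival was recorded in each group, and the value is the treated-group measurement divided by that of the vehicle-treated control group.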

Setting [1] is: dose: 60.0 mg/kg/injection, schedule: Q01DX005 (ip), vehicle: saline with Tween-80.
Setting [2] is: dose: 120.0 mg/kg/injection, schedule: Q01DX005 (ip), vehicle: saline with Tween-80.
[3] abbreviates: dose: 240.0 mg/kg/injection, schedule: Q01DX005 (ip), vehicle: saline with Tween-80.
Where [4] appears, read: dose: 100.0 mg/kg/injection, schedule: Q01DX001 (ip), vehicle: Klucel (hydroxypropylcellulose) (HPC).
[5] abbreviates: dose: 12.5 mg/kg/injection, schedule: Q04DX003 (ip), vehicle: saline with Tween-80.
Setting [6] is: dose: 25.0 mg/kg/injection, schedule: Q04DX003 (ip), vehicle: saline with Tween-80.
Setting [7] is: dose: 50.0 mg/kg/injection, schedule: Q01DX009 (ip), vehicle: saline with Tween-80.
Where [8] appears, read: dose: 100.0 mg/kg/injection, schedule: Q01DX009 (ip), vehicle: saline with Tween-80.
Where [9] appears, read: dose: 200.0 mg/kg/injection, schedule: Q01DX009 (ip), vehicle: saline with Tween-80.
The mark [10] stands for this setting: dose: 200.0 mg/kg/injection, schedule: Q04DX003 (ip), vehicle: saline with Tween-80.
[11] abbreviates: dose: 50.0 mg/kg/injection, schedule: Q01DX005 (ip), vehicle: saline with Tween-80.
[12] abbreviates: dose: 100.0 mg/kg/injection, schedule: Q01DX005 (ip), vehicle: saline with Tween-80.
[13] abbreviates: dose: 200.0 mg/kg/injection, schedule: Q01DX005 (ip), vehicle: saline with Tween-80.

Several values for one entry are separate records, joined by “and”; a condition that tells them apart may be missing. Identical values can stand only once. Toxic doses and inconclusive results are not listed.

For `COC(=O)C1=NC(=N)N=C(C(=O)OC)C1(C)C(=O)c1ccc(Cl)cc1` (centres undefined), the T/C reads like this: under setting [1], 100 % of control and 104 % of control; under setting [2], 98 % of control; under setting [3], 99 % of control.
Regarding `CCC(=O)NC(Cc1ccsc1)C(=O)O` (centres undefined), the T/C by setting is: (dose: 12.5 mg/kg/injection, schedule: Q01DX009 (ip), vehicle: saline) 103 % of control; (dose: 25.0 mg/kg/injection, schedule: Q01DX009 (ip), vehicle: saline) 107 % of control; (dose: 50.0 mg/kg/injection, schedule: Q01DX009 (ip), vehicle: saline) 98 % of control; (dose: 100.0 mg/kg/injection, schedule: Q01DX009 (ip), vehicle: saline) 90 % of control; (dose: 200.0 mg/kg/injection, schedule: Q01DX009 (ip), vehicle: saline) 90 % of control.
Turning to `Nc1ccccc1/C=C/c1ccnc2ccccc12`, the T/C is, setting by setting: (dose: 12.5 mg/kg/injection, schedule: Q01DX001 (ip), vehicle: Klucel (hydroxypropylcellulose) (HPC)) 101 % of control and 96 % of control; (dose: 25.0 mg/kg/injection, schedule: Q01DX001 (ip), vehicle: Klucel (hydroxypropylcellulose) (HPC)) 100 % of control and 89 % of control; (dose: 50.0 mg/kg/injection, schedule: Q01DX001 (ip), vehicle: Klucel (hydroxypropylcellulose) (HPC)) 91 % of control and 97 % of control; under setting [4], 87 % of control and 94 % of control.
`O=S(=O)(F)c1ccc(N=C=S)cc1`: the T/C by setting is: (dose: 6.25 mg/kg/injection, schedule: Q04DX003 (ip), vehicle: saline with Tween-80) 100 % of control; under setting [5], 104 % of control; under setting [6], 109 % of control.
For the compound `CCOc1nc(C(=O)O)cc2sccc12`, the T/C runs as follows: under setting [4], 90 % of control; (dose: 200.0 mg/kg/injection, schedule: Q01DX001 (ip), vehicle: Klucel (hydroxypropylcellulose) (HPC)) 93 % of control; (dose: 400.0 mg/kg/injection, schedule: Q01DX001 (ip), vehicle: Klucel (hydroxypropylcellulose) (HPC)) 88 % of control.
On to `Nc1nc(N)c(N=Nc2ccccc2)c(=O)[nH]1`, for which the T/C is 100 % of control under setting [7]; 86 % of control (dose: 50.0 mg/kg/injection, schedule: Q04DX003 (ip), vehicle: saline with Tween-80); 90 % of control under setting [8]; 95 % of control (dose: 100.0 mg/kg/injection, schedule: Q04DX003 (ip), vehicle: saline with Tween-80); 115 % of control under setting [9]; 95 % of control under setting [10].
Consider `CS1=C2C(=O)CC(C)(C)CC2=Nc2ccccc21` (centres undefined), for which the T/C (dose: 12.5 mg/kg/injection, schedule: Q01DX005 (ip), vehicle: saline with Tween-80) was 104 % of control; the T/C (dose: 25.0 mg/kg/injection, schedule: Q01DX005 (ip), vehicle: saline with Tween-80) was 104 % of control; the T/C under setting [11] is 99 % of control and 100 % of control.
Regarding `C=C1C(=O)OC2/C=C(/C)C3CC(O)C(C)(CC(OC(=O)/C(C)=C/C)C12)O3` (centres undefined), the T/C was 96 % of control and 105 % of control (dose: 10.0 mg/kg/injection, schedule: Q01DX009 (ip), vehicle: saline with Tween-80); 96 % of control and 107 % of control (dose: 20.0 mg/kg/injection, schedule: Q01DX009 (ip), vehicle: saline with Tween-80); 109 % of control and 119 % of control (dose: 40.0 mg/kg/injection, schedule: Q01DX009 (ip), vehicle: saline with Tween-80); 123 % of control and 117 % of control (dose: 80.0 mg/kg/injection, schedule: Q01DX009 (ip), vehicle: saline with Tween-80).
Take `CC1(C)CCc2c(cc3c(c2O)CCC(C)(C)O3)O1`: the T/C under setting [1] was 109 % of control, the T/C under setting [2] was 117 % of control and the T/C under setting [3] is 100 % of control.
For `Nc1nc(CCCCc2ccccc2)c(N=Nc2ccc(Cl)cc2)c(=O)[nH]1`, in that order: 97 % of control, 95 % of control and 103 % of control.
Regarding `CCOC(=O)c1cc(=O)n(C)c2ccc(OCC)cc12`, the T/C was 90 % of control under setting [8]; 95 % of control under setting [9]; 90 % of control (dose: 400.0 mg/kg/injection, schedule: Q01DX009 (ip), vehicle: saline with Tween-80).
Regarding `CN1C(c2ccccc2)=C(C#N)C(=O)CC(c2ccc(Cl)cc2)N1C` (centres undefined), the T/C by setting is: under setting [1], 102 % of control; under setting [2], 91 % of control; under setting [3], 101 % of control.
Take `O=C(O)c1c(C(=O)O)c(C(=O)O)c(C(=O)O)c(C(=O)O)c1C(=O)O`: the T/C was 111 % of control (dose: 25.0 mg/kg/injection, schedule: Q01DX009 (ip), vehicle: water); 106 % of control (dose: 50.0 mg/kg/injection, schedule: Q01DX009 (ip), vehicle: water); 109 % of control (dose: 100.0 mg/kg/injection, schedule: Q01DX009 (ip), vehicle: water); 101 % of control (dose: 200.0 mg/kg/injection, schedule: Q01DX009 (ip), vehicle: water).
In the case of `Nc1nc(N)nc(-c2cc(Br)c(N)c(Br)c2)n1`, the T/C runs as follows: under setting [11], 95 % of control; under setting [12], 101 % of control; under setting [13], 93 % of control.
For `COC(=O)C(CCC(=O)CCl)N1C(=O)c2ccccc2C1=O` (centres undefined), the T/C reads like this: (dose: 25.0 mg/kg/injection, schedule: Q01DX009 (ip), vehicle: Klucel (hydroxypropylcellulose) (HPC)) 108 % of control; (dose: 50.0 mg/kg/injection, schedule: Q01DX009 (ip), vehicle: Klucel (hydroxypropylcellulose) (HPC)) 106 % of control.
Consider `COC(=O)CCc1ccc(NP(=O)(N2CC2)N2CC2)cc1`, for which the T/C is 100 % of control under setting [5]; 115 % of control under setting [6]; 150 % of control under setting [8]; 150 % of control (dose: 132.0 mg/kg/injection, schedule: Q04DX003 (ip), vehicle: saline with Tween-80); 90 % of control under setting [9]; 156 % of control under setting [10]. Further, where the note is “dose: 300.0 mg/kg/injection, schedule: Q04DX003 (ip), vehicle: saline with Tween-80”, the T/C was 90 % of control.
In the case of `c1ccc(C2Oc3ccccc3-c3nc4ccccc4cc32)cc1` (centres undefined), the T/C is 106 % of control under setting [11], 111 % of control under setting [12] and 100 % of control under setting [13].
For `CCNC(=O)CCC(NS(=O)(=O)c1ccc(NC(=O)c2ccc(Cl)cc2)cc1)C(=O)O` (centres undefined), in that order: 107 % of control, 104 % of control and 102 % of control.
Turning to `O=C1C=CC(=O)C2=C1C1C3=C(C(=O)C=CC3=O)C2c2ccccc21`, the T/C runs as follows: under setting [7], 110 % of control; under setting [8], 106 % of control; under setting [9], 101 % of control.
In the case of `CC(N)C(=O)NC(C(=O)O)C(C)C` (centres undefined), the T/C was 102 % of control (dose: 25.0 mg/kg/injection, schedule: Q01DX009 (ip), vehicle: saline with Tween-80); 93 % of control (dose: 50.0 mg/kg/injection, schedule: Q01DX005 (ip), vehicle: saline); 100 % of control under setting [7]; 100 % of control (dose: 100.0 mg/kg/injection, schedule: Q01DX005 (ip), vehicle: saline); 96 % of control under setting [8]; 98 % of control (dose: 200.0 mg/kg/injection, schedule: Q01DX005 (ip), vehicle: saline). The T/C under setting [9] was 111 % of control.
As for `CCOC(=O)c1ccc(NC(=O)Nc2cc(OC)ccc2OC)cc1`, the T/C was 98 % of control (dose: 60.0 mg/kg/injection, schedule: Q01DX005 (ip), vehicle: Klucel (hydroxypropylcellulose) (HPC)); 99 % of control (dose: 120.0 mg/kg/injection, schedule: Q01DX005 (ip), vehicle: Klucel (hydroxypropylcellulose) (HPC)); 101 % of control (dose: 240.0 mg/kg/injection, schedule: Q01DX005 (ip), vehicle: Klucel (hydroxypropylcellulose) (HPC)).
In the case of `CNC(C#N)C(C)F` (centres undefined), the T/C (dose: 15.0 mg/kg/injection, schedule: Q01DX005 (ip), vehicle: saline) is 98 % of control; the T/C (dose: 30.0 mg/kg/injection, schedule: Q01DX005 (ip), vehicle: saline) was 99 % of control; the T/C (dose: 60.0 mg/kg/injection, schedule: Q01DX005 (ip), vehicle: saline) is 99 % of control and 98 % of control.
Turning to `C/C(=N/NC(=O)c1ccccc1)C(=NO)/C(C)=N\NC(=O)c1ccccc1`, the T/C by setting is: (dose: 100.0 mg/kg/injection, schedule: Q01DX001 (ip), vehicle: saline) 100 % of control; (dose: 200.0 mg/kg/injection, schedule: Q01DX001 (ip), vehicle: saline) 97 % of control; (dose: 400.0 mg/kg/injection, schedule: Q01DX001 (ip), vehicle: saline) 100 % of control.
